According to US12195506B2, “Immunotherapy with A*01 restricted peptides and combination of peptides against cancers and related methods” (Immatics Biotechnologies GmbH, priority 2018, dated 2025):

Experiments:
[1] = biological target: HLA-A*01:01 (Homo sapiens, UniProt P04439, A114D/A174V/A182V/D101N/D185E/E176A/E190D/L180R/Q94H/R68K/S129P/T187R/V100A/V91M/W191G); test: MHC binding assay: UV-ligand exchange, ELISA of stabilized MHC complexes (peptide exchange yield); settings: binding to HLA-A*01:01, UV-ligand exchange
Outline: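 Peptide–MHC complexes were formed by UV-induced exchange of a photocleavable ligand for the test peptide. Exchange yield was measured by streptavidin-capture ELISA of 100-fold diluted complexes, detected with HRP anti-β2m at A450. Refolded HLA-A*02:01/MLA-001 monomers at 15-500 ng/ml served as standards.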

[2] = system: CD8+ T cells; test: In vitro T-cell priming assay with artificial antigen presenting cells loaded with peptide/MHC complexes and anti-CD28 antibody, pMHC multimer readout; assay type: cell-based, human; settings: in vitro immunogenicity, peptide-specific multimer+ CD8+ T cells
From the text: In order to obtain information regarding the immunogenicity of the TUMAPs of the present invention, the inventors performed investigations using an in vitro T-cell priming assay based on repeated stimulations of CD8+ T cells with artificial antigen presenting cells (aAPCs) loaded with peptide/MHC complexes and anti-CD28 antibody.
In order to perform in vitro stimulations by artificial antigen presenting cells loaded with peptide-MHC complex (pMHC) and anti-CD28 antibody, the inventors first isolated CD8+ T cells from fresh HLA-A*02 leukapheresis products via positive selection using CD8 microbeads (Miltenyi Biotec, Bergisch-Gladbach, Germany) of healthy donors obtained from the University clinics Mannheim, Germany, after informed consent.
PBMCs and isolated CD8+ lymphocytes were incubated in T-cell medium (TCM) until use consisting of RPMI-Glutamax (Invitrogen, Karlsruhe, Germany) supplemented with 10% heat inactivated human AB serum (PAN-Biotech, Aidenbach, Germany), 100 U/ml Penicillin/100 μg/ml Streptomycin (Cambrex, Cologne, Germany), 1 mM sodium pyruvate (CC Pro, Oberdorla, Germany), 20 μg/ml Gentamycin (Cambrex). 2.5 ng/ml IL-7 (PromoCell, Heidelberg, Germany) and 10 U/ml IL-2 (Novartis Pharma, Nurnberg, Germany) were also added to the TCM at this step.
Generation of pMHC/anti-CD28 coated beads, T-cell stimulations and readout was performed in a highly defined in vitro system using four different pMHC molecules per stimulation condition and 8 different pMHC molecules per readout condition.
The purified co-stimulatory mouse IgG2a anti human CD28 Ab 9.3 (Jung et al., 1987) was chemically biotinylated using Sulfo-N-hydroxysuccinimidobiotin as recommended by the manufacturer (Perbio, Bonn, Germany). Beads used were 5.6 μm diameter streptavidin coated polystyrene particles (Bangs Laboratories, Illinois, USA).
pMHC used for positive and negative control stimulations were A*0201/MLA-001 (peptide […] (SEQ ID NO. 433) from modified Melan-A/MART-1) and A*0201/DDX5-001 ([…] from DDX5, SEQ ID NO. 434), respectively.
800.000 beads/200 μI were coated in 96-well plates in the presence of 4×12.5 ng different biotin-pMHC, washed and 600 ng biotin anti-CD28 were added subsequently in a volume of 200 μI. Stimulations were initiated in 96-well plates by co-incubating 1×10^6 CD8+ T cells with 2×10^5 washed coated beads in 200 μI TCM supplemented with 5 ng/ml IL-12 (PromoCell) for 3 days at 37° C. Half of the medium was then exchanged by fresh TCM supplemented with 80 U/ml IL-2 and incubating was continued for 4 days at 37° C. This stimulation cycle was performed for a total of three times. For the pMHC multimer readout using 8 different pMHC molecules per condition, a two-dimensional combinatorial coding approach was used as previously described (Andersen et al., 2012) with minor modifications encompassing coupling to 5 different fluorochromes. Finally, multimeric analyses were performed by staining the cells with Live/dead near IR dye (Invitrogen, Karlsruhe, Germany), CD8-FITC antibody clone SK1 (BD, Heidelberg, Germany) and fluorescent pMHC multimers. For analysis, a BD LSRII SORP cytometer equipped with appropriate lasers and filters was used. Peptide specific cells were calculated as percentage of total CD8+ cells. Evaluation of multimeric analysis was done using the FlowJo software (Tree Star, Oregon, USA). In vitro priming of specific multimer+CD8+ lymphocytes was detected by comparing to negative control stimulations.

Row | Substance | Peptide exchange [1] | Wells positive [%] ([2]; Table 10b) | Wells positive [%] ([2]; Table 10a)
1 | 18 (RSDPVSLRY; listed as Homo sapiens) [compound 18] | ++++ (>75% = ++++) | ++ (20%-49% = ++) | –
2 | 42 (ASDVDTLLK; listed as Homo sapiens) [compound 42] | +++ (>50 = +++) | + (<20% = +) | –
3 | 54 (EVDIHTIHY; listed as Homo sapiens) [compound 54] | +++ (>50 = +++) | + (<20% = +) | –
4 | 81 (YSDLHTPGRY; listed as Homo sapiens) [compound 81] | +++ (>50 = +++) | + (<20% = +) | –
5 | 84 (ESEMIKFASYY; listed as Homo sapiens) [compound 84] | ++++ (>75% = ++++) | + (<20% = +) | –
6 | 399 (YVGKEHMFY; listed as Homo sapiens) [compound 399] | – | – | + (<20% = +)
7 | 400 (NTDNNLAVY; listed as Homo sapiens) [compound 400] | – | – | + (<20% = +)
8 | 401 (VWSNVTPLKF; listed as Homo sapiens) [compound 401] | – | – | + (<20% = +)
9 | 403 (SADDIRGIQSLY; listed as Homo sapiens) [compound 403] | – | – | + (<20% = +)
10 | 404 (FVDNQYWRY; listed as Homo sapiens) [compound 404] | – | – | + (<20% = +)
11 | 408 (VWSDVTPLTF; listed as Homo sapiens) [compound 408] | – | – | + (<20% = +)
12 | 414 (LTEGHSGNYY; listed as Homo sapiens) [compound 414] | – | – | + (<20% = +)
13 | 415 (VWSDVTPLNF; listed as Homo sapiens) [compound 415] | – | – | + (<20% = +)
14 | 417 (KLDRSVFTAY; listed as Homo sapiens) [compound 417] | – | – | ++++ (>= 70% = ++++)
15 | 420 (VTDLEMPHY; listed as Homo sapiens) [compound 420] | – | – | + (<20% = +)
16 | 421 (RSDPGGGGLAY; listed as Homo sapiens) [compound 421] | – | – | + (<20% = +)
17 | 427 (LTDYINANY; listed as Homo sapiens) [compound 427] | – | – | + (<20% = +)
18 | 429 (VSDSECLSRY; listed as Homo sapiens) [compound 429] | – | – | ++ (20%-49% = ++)

Continued, in another order:

Row | Peptide exchange [1] | Substance | Wells positive [%] ([2]; Table 10b) | Wells positive [%] ([2]; Table 10a)
19 | +++ (>50 = +++) | 10 (VSERTGISY; listed as Homo sapiens) [compound 10] | + (<20% = +) | –
20 | +++ (>50 = +++) | 11 (ASDHWRGRY; listed as Homo sapiens) [compound 11] | +++ (50%-69% = +++) | –
21 | +++ (>50 = +++) | 12 (YTDFVGEGLY; listed as Homo sapiens) [compound 12] | + (<20% = +) | –
22 | ++++ (>75% = ++++) | 19 (LTEGHSGNY; listed as Homo sapiens) [compound 19] | + (<20% = +) | –
23 | +++ (>50 = +++) | 24 (NLDHYTNAY; listed as Homo sapiens) [compound 24] | + (<20% = +) | –
24 | +++ (>50 = +++) | 26 (ASDDFRSKY; listed as Homo sapiens) [compound 26] | ++ (20%-49% = ++) | –
25 | ++++ (>75% = ++++) | 27 (PSEVPVDSHY; listed as Homo sapiens) [compound 27] | + (<20% = +) | –
26 | +++ (>50 = +++) | 33 (SMDPVTGYQY; listed as Homo sapiens) [compound 33] | + (<20% = +) | –
27 | +++ (>50 = +++) | 37 (MTSTEQSLYY; listed as Homo sapiens) [compound 37] | + (<20% = +) | –
28 | ++++ (>75% = ++++) | 53 (YLEDRPLSQLY; listed as Homo sapiens) [compound 53] | + (<20% = +) | –
29 | ++++ (>75% = ++++) | 60 (MTEKFLFLY; listed as Homo sapiens) [compound 60] | + (<20% = +) | –
30 | +++ (>50 = +++) | 61 (SSDIVALGGFLY; listed as Homo sapiens) [compound 61] | ++ (20%-49% = ++) | –
31 | +++ (>50 = +++) | 64 (TSEISQNALMYY; listed as Homo sapiens) [compound 64] | + (<20% = +) | –
32 | +++ (>50 = +++) | 70 (YTELVEEKY; listed as Homo sapiens) [compound 70] | + (<20% = +) | –
33 | +++ (>50 = +++) | 71 (LTDSTTRTTY; listed as Homo sapiens) [compound 71] | + (<20% = +) | –
34 | ++++ (>75% = ++++) | 73 (STDSASYY; listed as Homo sapiens) [compound 73] | + (<20% = +) | –
35 | ++++ (>75% = ++++) | 75 (FTDYELKAY; listed as Homo sapiens) [compound 75] | + (<20% = +) | –
36 | ++++ (>75% = ++++) | 77 (FTSDTGLEY; listed as Homo sapiens) [compound 77] | +++ (50%-69% = +++) | –
37 | +++ (>50 = +++) | 79 (ASDLEPRELLSY; listed as Homo sapiens) [compound 79] | + (<20% = +) | –
38 | +++ (>50 = +++) | 82 (LTEKSHIRY; listed as Homo sapiens) [compound 82] | + (<20% = +) | –
39 | +++ (>50 = +++) | 83 (DTEFHGGLHY; listed as Homo sapiens) [compound 83] | + (<20% = +) | –
40 | ++++ (>75% = ++++) | 386 (NSALNPLLY; listed as Homo sapiens) [compound 386] | + (<20% = +) | –
41 | +++ (>50 = +++) | 387 (LMEKEDYHSLY; listed as Homo sapiens) [compound 387] | + (<20% = +) | –
